In US6420563B1, “Small molecule modulators of G protein-coupled receptor six” (Arena Pharmaceuticals, Inc., priority 1998, dated 2002):

Legend:
[1] = molecular target: T1, GPR6:Gsα-Fusion Protein (Homo sapiens, UniProt P46095); experiment: [35S]GTPγS membrane binding assay (Example 4A); type: biochemical; conditions: mean +/- standard deviation (number of assays in brackets); read-out: IC50 Values GTP Assay Example 4A
T1 construct: expressed in transfected cells
Method: The assay plates were then centrifuged at 400 rpm for 15 minutes at room temperature and then subsequently aspirated and counted in a scintillation counter.
Membranes expressing the GPCR6:Gsα-Fusion Protein (see Example 2) and for use in the direct identification of candidate compounds as inverse agonists, agonists or partial agonists were prepared as follows:
All materials were kept on ice throughout the procedure. Firstly, the media was aspirated from a confluent monolayer of cells, followed by rinse with 10 ml cold PBS, followed by aspiration. Thereafter, 5 ml of membrane Scrape Buffer was added to scrape cells; this was followed by transfer of cellular extract into 50 ml centrifuge tubes (centrifuged at 20,000 rpm for 17 minutes at 4° C.). Thereafter, the supernatant was aspirated and the pellet was resuspended in 30 ml Membrane Wash Buffer followed by centrifuge at 20,000 rpm for 17 minutes at 4° C. The supernatant was then aspirated and the pellet resuspended in Binding Buffer. This was then homogenized using a Brinkman polytron™ homogenizer (15-20 second bursts until the all material was in suspension). This is referred to herein as “Membrane Protein”.
Candidate compounds (Tripos, Inc., St. Louis, Mo.) were received in 96-well plates (these can be frozen at −80° C.). Membrane Protein (or membranes with expression vector excluding the GPR6:Gsα-Fusion Protein, as control), were homogenized briefly until in suspension. Protein concentration was then determined using the Bradford Protein Assay set forth above. […] Thereafter, 100 ul GDP Buffer was added to each well of a Wallac Scintistrip™ (Wallac). A 5 ul pin-tool was then used to transfer 5 ul of a candidate compound into such well (i.e., 5 ul in total assay volume of 200 ul is a 1:40 ratio such that the final screening concentration of the candidate compound is 10 uM). Again, to avoid contamination, after each transfer step the pin tool was rinsed in three reservoirs comprising water (1×), ethanol (1×) and water (2×)—excess liquid should be shaken from the tool after each rinse and dried with paper towels and kimwipes™. Thereafter, 50 ul of Membrane Protein was added to each well (a control well comprising membranes without the GPCR Fusion Protein is also utilized), and pre-incubated for 5-10 minutes at room temperature (the plates were covered with foil in that the candidate compounds obtained from Tripos are light sensitive). Thereafter, 50 ul of [^35S]GTPγS (0.6 nM) in Binding Buffer was added to each well, followed by incubation on a shaker for 60 minutes at room temperature (again, in this example, plates were covered with foil). The assay was then stopped by spinning of the plates at 4000 RPM for 15 minutes at 22° C. The plates were then aspirated with an 8 channel manifold and sealed with plastic plate covers. The plates were then read on a Wallac 1450 using setting “Prot. #37” (as per manufacturer instructions).
The initial or “primary” screen designed to directly identify, e.g., human GPR6 receptor inverse agonists, consisted of the membrane-based GTPγS binding assay of Example 4A utilizing membranes prepared from 293 stable cells. Candidate compounds directly identified as inhibiting receptor-mediated increases in GTPγS as set forth below were considered active “leads”.
It is preferred that following such direct identification, IC50 (inverse agonist) or EC50 (agonist) values be determined; those having ordinary skill in the art are credited with utilizing IC50 and EC50 assay protocols of choice. FIG. 4 provides a representative IC50 curve for compound ARE112 using the assay protocol of Example 4A.

[2] = molecular target: T2, GPR6 (Homo sapiens, UniProt P46095); experiment: membrane-based cyclic AMP confirmation assay (Example 4C); type: biochemical; conditions: mean +/- standard deviation (number of assays in brackets); read-out: IC50 Values Cyclic AMP Assay Example 4C
T2 construct: expressed in transfected cells; 293 cells are used elsewhere
T2 sequence (P46095 whole entry): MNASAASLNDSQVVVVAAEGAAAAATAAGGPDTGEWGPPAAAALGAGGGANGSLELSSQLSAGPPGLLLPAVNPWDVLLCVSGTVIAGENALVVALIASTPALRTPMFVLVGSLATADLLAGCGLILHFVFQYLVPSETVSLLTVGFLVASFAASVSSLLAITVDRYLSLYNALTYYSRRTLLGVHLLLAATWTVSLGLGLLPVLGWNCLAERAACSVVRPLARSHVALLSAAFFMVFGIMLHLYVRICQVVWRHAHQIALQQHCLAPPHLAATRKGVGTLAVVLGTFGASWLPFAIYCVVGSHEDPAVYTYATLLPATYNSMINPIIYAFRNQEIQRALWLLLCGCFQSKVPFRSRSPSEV
Excerpt: Using an independent assay approach to provide confirmation of a directly identified candidate compound as set forth above, it is preferred that a confirmation assay then be utilized. In this case, the preferred confirmation assay is membrane-based cyclic AMP (cAMP) assay.
A modified Flash Plate™ Adenylyl Cyclase kit (New England Nuclear; Cat. No. SMP004A) was utilized for confirmation of candidate compounds directly identified as inverse agonists and agonists to endogenous, constitutively activated orphan GPCRs in accordance with the following protocol.
Transfected stable cells were harvested approximately three days after transfection. Membranes were prepared by homogenization of suspended cells in buffer containing 20 mM HEPES, pH 7.4 and 10 mM MgCl2. Homogenization was performed on ice using a Brinkman Polytron™ for approximately 10 seconds. The resulting homogenate was centrifuged at 20,000 rpm for 20 minutes at 4° C. The resulting pellet was then resuspended in buffer containing 20 mM HEPES, pH 7.4 and 0.1 mM EDTA, homogenized for 10 seconds, followed by centrifugation at 20,000 rpm for 20 minutes at 4° C. The resulting pellet can be stored at −80° C. until utilized. On the day of direct identification screening, the membrane pellet is slowly thawed at room temperature, resuspended in buffer containing 20 mM HEPES, pH 7.4, 100 mM NaCl and 10 mM MgCL2, to yield a final protein concentration of 0.60 mg/ml (the resuspended membranes are placed on ice until use).
Candidate compounds identified as per above (if frozen, thawed at room temperature) were added to plate wells (3 μl/well; 12 μM final assay concentration), together with 50 μl Membrane Protein (30 μg/well) and 50 μl of Assay Buffer. This admixture was then incubated for 30 minutes at room temperature, with gentle shaking.
Following the incubation, 100 μl of Detection Buffer was added to each well, followed by incubation for 2-20 hours. Plates were subsequently aspirated and then counted in a Wallac MicroBeta™ plate reader using “Prot. #31” (as per manufacturer instructions).

[3] = Food/water intake and body weight in 24-hour food deprived rats, oral gavage (PO); type: in vivo, rat
Method: Based upon the in vivo data developed, oral bioavailability of compound ARE112 was determined. The compound was administered by oral gavage at doses ranging from 6.75 to 54 mg/kg. The data presented in FIGS. 9A and 9B support the conclusion that oral administration of ARE112 also decreases food intake in both food-deprived and non-food deprived rats. […] In FIG. 9A, rats were deprived 24 hours prior to oral administration of the compound. In this assay, the vehicle-treated rats at 2.5 hours consumed […] of food while injected rats; particularly rats administered with 27 and 54 mg/kg of ARE 112, ate about 6 and 4 grams, respectively. […] (See, FIG. 9A).
Several other GPR6 inverse agonists were also assessed under 24-hour food deprived conditions, with PO administration. The analogs listed below were tested at 200 μmol/kg, which is equivalent to 54 mg/kg. In addition, ARE114 was also assessed at […]. Data are summarized below in Table C:
In a second assay, tested under the same conditions, several other analogs were assessed at 100 μmol/kg.
In FIG. 10, rats were deprived 24 hours prior to oral administration of the compound. In this assay, analogs ARE130, ARE135, ARE136, and ARE140, were administered at a dose of 100 μmol/kg. Three analogs, particularly, ARE130, ARE136 and ARE140 evidenced a slow intake of food (e.g., about 1 to 1.5 grams every two hours) over an eight hour period post-administration; while the vehicle rat consumed about 2 to 2.5 grams food every two hours. Similar to the vehicle rat, analog ARE135, an opened ring structure, evidenced that over an eight hour period post-administration the rats increasingly consumed about 2.5 grams every two hours. (See, FIG. 10A). Furthermore, the body weight of the vehicle rat and administered rats with analog ARE135 gained about 19.5 grams. On the other hand, the closed ring structures evidenced a decrease in body weight gain as follows: ARE112-6 grams, ARE130-9 grams, ARE136-11 grams and ARE140-14 grams. See, FIG. 10C.

[4] = 100 μmol/kg PO, second assay, Table D, vehicle 19.25

T1 sequence (P46095 with tags, fused parts or gaps): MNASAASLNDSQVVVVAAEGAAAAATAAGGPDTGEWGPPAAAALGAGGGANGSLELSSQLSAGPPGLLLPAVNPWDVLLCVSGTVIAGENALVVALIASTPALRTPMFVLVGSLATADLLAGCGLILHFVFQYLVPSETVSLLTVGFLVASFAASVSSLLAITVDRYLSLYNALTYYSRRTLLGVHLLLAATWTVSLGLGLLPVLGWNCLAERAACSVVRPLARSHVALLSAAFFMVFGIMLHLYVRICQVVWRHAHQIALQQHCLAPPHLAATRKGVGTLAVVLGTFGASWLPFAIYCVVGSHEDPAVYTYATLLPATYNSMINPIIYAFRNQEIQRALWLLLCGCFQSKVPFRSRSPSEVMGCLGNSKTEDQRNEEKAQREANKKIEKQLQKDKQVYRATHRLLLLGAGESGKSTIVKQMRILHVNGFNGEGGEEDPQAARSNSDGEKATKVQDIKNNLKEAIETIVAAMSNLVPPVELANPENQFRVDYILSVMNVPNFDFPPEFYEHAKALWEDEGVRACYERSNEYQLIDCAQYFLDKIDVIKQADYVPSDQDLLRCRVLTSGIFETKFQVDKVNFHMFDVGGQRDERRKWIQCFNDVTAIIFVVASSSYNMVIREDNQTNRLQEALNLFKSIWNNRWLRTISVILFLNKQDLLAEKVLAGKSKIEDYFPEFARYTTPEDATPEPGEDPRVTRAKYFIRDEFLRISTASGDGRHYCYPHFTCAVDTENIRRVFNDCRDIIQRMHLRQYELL

O=C(NC(=S)N1CCNC1=S)c1cccs1 [ARE111, N-(2-thioxo-imidazolidine-1-carbothioyl)-thiophene-2-carboxamide]
IC50 [1]: 2790 nM
IC50 [2]: 1960 nM

O=C(NC(=S)N1CCNC1=S)c1ccccc1 [ARE113, N-(2-thioxo-imidazolidine-1-carbothioyl)-benzamide]
IC50 [1]: 100000 nM

O=C(NC(=S)N1CCNC1=S)c1ccc(C(F)(F)F)cc1 [ARE115, N-(2-thioxo-imidazolidine-1-carbothioyl)-4-trifluoromethylbenzamide]
IC50 [1]: 1570 nM
IC50 [2]: 3650 nM

O=C(N=C1SSC2=NCCN21)c1ccc(C(F)(F)F)cc1 [ARE116, N-(5,6-dihydro-3H-imidazo[2,1-c]-1,2,4-dithiazol-3-ylidene)-4-trifluoromethylbenzamide]
IC50 [1]: 570 nM
IC50 [2]: 170 nM

CC(C)(C)c1ccc(C(=O)N=C2SSC3=NCCN32)cc1 [ARE118, N-(5,6-dihydro-3H-imidazo[2,1-c]-1,2,4-dithiazol-3-ylidene)-4-tert-butylbenzamide]
IC50 [1]: 650 nM
IC50 [2]: 370 nM

O=C(NC(=S)N1CCNC1=S)c1ccc(Cl)cc1 [ARE119, N-(2-thioxo-imidazolidine-1-carbothioyl)-4-chlorobenzamide]
IC50 [1]: 450 nM
IC50 [2]: 1970 nM

COc1ccc(C(=O)NC(=S)N2CCNC2=S)cc1 [ARE121, N-(2-thioxo-imidazolidine-1-carbothioyl)-4-methoxybenzamide]
IC50 [1]: 122000 nM
IC50 [2]: 55000 nM

COc1ccc(C(=O)N=C2SSC3=NCCN32)cc1 [ARE122, N-(5,6-dihydro-3H-imidazo[2,1-c]-1,2,4-dithiazol-3-ylidene)-4-methoxybenzamide]
IC50 [1]: 830 nM
IC50 [2]: 210 nM

COc1cccc(C(=O)NC(=S)N2CCNC2=S)c1 [ARE123, N-(2-thioxo-imidazolidine-1-carbothioyl)-3-methoxybenzamide]
IC50 [1]: 56000 nM
IC50 [2]: 51000 nM

COc1cccc(C(=O)N=C2SSC3=NCCN32)c1 [ARE124, N-(5,6-dihydro-3H-imidazo[2,1-c]-1,2,4-dithiazol-3-ylidene)-3-methoxybenzamide]
IC50 [1]: 310 nM
IC50 [2]: 400 nM

Cc1cccc(C(=O)NC(=S)N2CCNC2=S)c1 [ARE125, N-(2-thioxo-imidazolidine-1-carbothioyl)-3-methylbenzamide]
IC50 [1]: 3800 nM
IC50 [2]: 120000 nM

Cc1cccc(C(=O)N=C2SSC3=NCCN32)c1 [ARE126, N-(5,6-dihydro-3H-imidazo[2,1-c]-1,2,4-dithiazol-3-ylidene)-3-methylbenzamide]
IC50 [1]: 790 nM
IC50 [2]: 140 nM

O=C(NC(=S)N1CCNC1=S)c1ccc(F)cc1 [ARE127, N-(2-thioxo-imidazolidine-1-carbothioyl)-4-fluorobenzamide]
IC50 [1]: 1250 nM
IC50 [2]: 480 nM

O=C(NC(=S)N1CCNC1=S)c1cccc(F)c1 [ARE129, N-(2-thioxo-imidazolidine-1-carbothioyl)-3-fluorobenzamide]
IC50 [1]: 3190 nM
IC50 [2]: 2620 nM

O=C(NC(=S)N1CCNC1=S)c1ccccc1F [ARE131, N-(2-thioxo-imidazolidine-1-carbothioyl)-2-fluorobenzamide]
IC50 [1]: 43000 nM

O=C(N=C1SSC2=NCCN21)c1ccccc1F [ARE132, N-(5,6-dihydro-3H-imidazo[2,1-c]-1,2,4-dithiazol-3-ylidene)-2-fluorobenzamide]
IC50 [1]: 350 nM
IC50 [2]: 100 nM

O=C(NC(=S)N1CCNC1=S)c1ccc(F)cc1F [ARE133, N-(2-thioxo-imidazolidine-1-carbothioyl)-2,4-difluorobenzamide]
IC50 [1]: 110 nM
IC50 [2]: 170 nM

O=C(/N=C1\SSC2=NCCN21)c1ccc2ccccc2c1 [ARE136]
Cumulative Food Intake (g) (8 hr post administration) ([3]; 100 μmol/kg PO, second assay, Table D, vehicle 14.0): 9.0 g
Body Weight Gain (g) (6 hr post administration) [3, 4]: 11.0 g
Cumulative Water Intake (g) (6 hr post administration) [3, 4]: 15.25 g
water drunk less than the vehicle animal (FIG. 10B) ([3]; 100 μmol/kg oral): ~4 grams
body weight gain (FIG. 10C) ([3]; 100 μmol/kg oral, vehicle about 19.5 grams): 11 grams

O=C(NC(=S)N1CCNC1=S)c1cccc2ccccc12 [ARE137, N-(2-thioxo-imidazolidine-1-carbothioyl)-naphthyl-1-carboxamide]
IC50 [2]: 100000 nM

O=C(N=C1SSC2=NCCN21)c1cnn(-c2ccc(Cl)cc2)c1C(F)(F)F [ARE152, N-(5,6dihydro-3H-imidazo[2,1-c]-1,2,4-dithiazol-3-ylidene)-2-(4-chlorophenyl)-3-(trifluoromethyl)pyrazole-4-carboxamide]
IC50 [1]: 190 nM

O=C(NC(=S)N1CCNC1=S)c1cnn(-c2ccc(Cl)cc2)c1C(F)(F)F [ARE153, N-(2-thioxo-imidazolidine-1-carbothioyl)-2-(4-chlorophenyl)-3-(trifluoromethyl)pyrazole-4-carboxamide]
IC50 [1]: 2460 nM

CSc1ncccc1C(=O)NC(=S)N1CCNC1=S [ARE154, N-(2-thioxo-imidazolidine-1-carbothioyl)-pyridine-2-methylthio-3-carboxamide]
IC50 [2]: 80000 nM
